This is an account of results in US20150368220A1, “PHARMACEUTICAL COMPOSITION FOR TREATING OR PREVENTING STRESS URINARY INCONTINENCE OR MIXED URINARY INCONTINENCE, AND METHOD FOR SCREENING COMPOUND COMPRISED IN SAID PHARMACEUTICAL COMPOSITION” (Astellas Pharma Inc., priority 2012, published 2015).

The test system of assay [1] is SD female rat. The assay is described as follows: Effect on urethral pressure, perfusion method (Example 4). It counts as in vivo. As for the experimental part: An SD female rat was anesthetized with urethane and allowed to undergo laparotomy, the bladder dome was then incised, and a catheter having a barb at the tip was inserted toward the urethra from the bladder, and ligated and fixed such that the tip of the catheter was positioned around the proximal urethra. Physiological saline was injected at a predetermined flow rate into the urethra through the catheter and the urethral pressure was measured with a pressure transducer. After the urethral pressure was stabilized, compounds dissolved in physiological saline, or physiological saline containing 5% N,N-dimethylacetamide(DMA) and 0.5% Cremophor were intravenously administered at a dose of 1 μg/kg, 10 μg/kg, 100 μg/kg, or 1000 μg/kg and a change in the urethral pressure was measured.

Assay [2] deals with T1, human MT1 receptor (Homo sapiens, UniProt P48039).
T1 construct: expressed in transfected cells; vector pCDNA3.1/Zeo; co-transfected with a Gq/i chimeric G protein expression vector
T1 sequence (P48039 whole entry): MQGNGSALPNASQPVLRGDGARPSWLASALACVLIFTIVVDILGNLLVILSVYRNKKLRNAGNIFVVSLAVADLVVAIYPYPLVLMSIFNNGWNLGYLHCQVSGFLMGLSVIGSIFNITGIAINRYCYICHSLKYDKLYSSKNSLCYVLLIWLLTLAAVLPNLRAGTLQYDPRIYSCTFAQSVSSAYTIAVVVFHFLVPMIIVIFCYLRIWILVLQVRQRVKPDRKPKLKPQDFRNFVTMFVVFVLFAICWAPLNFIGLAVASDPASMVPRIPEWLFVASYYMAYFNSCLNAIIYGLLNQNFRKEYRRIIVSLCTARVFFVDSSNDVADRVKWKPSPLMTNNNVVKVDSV
Nature of the assay: Intracellular Ca2+ concentration by FLIPR in human MT1 receptor expressing cells (Example 2). It counts as cell-based. The conditions noted are these: human MT1 receptor expressing HEK293 cells, 10^-5 M to 10^-12 M, FIGS. 2 and 4. Here is the method:
(§1) The expression vectors for human MT1 and MT2 receptors were introduced into HEK293 cells, together with a Gq/i chimeric G protein expression vector, respectively. The incorporation was carried out in accordance with instructions, using a Lipofectoamine (registered trademark) 2000 Reagent (Invitrogen Inc.). Using Zeocin and hygromycin as a resistant agent, the cells were cultured for 15 days in the presence of 0.02 mg/mL and 0.05 mg/mL of the agents, respectively, thereby acquiring a drug-resistant clone.
(§2) The respective stably expressing cells were dispensed into 96 wells in a poly-D-lysine-coated plate (Falcon) the day before the experiment to give 40,000 cells/well, and cultured in a DMEM (Invitrogen Inc.) medium containing 10% FBS at 37° C. and 5% CO2 overnight. The medium was replaced with a loading buffer (a washing solution containing 4 μM Fluo-4AM (Dojindo Co.) (Hank's balanced salt solution (HBSS), 20 mM HEPES-NaOH, 2.5 mM probenecid)) and cultured at 37° C. and 5% CO2 for 1 hour.

Assay [3] concerns the target T2, human MT2 receptor (Homo sapiens, UniProt P49286).
T2 construct: expressed in transfected cells; vector pCDNA3.1/Zeo; co-transfected with a Gq/i chimeric G protein expression vector
T2 sequence (P49286 1-362): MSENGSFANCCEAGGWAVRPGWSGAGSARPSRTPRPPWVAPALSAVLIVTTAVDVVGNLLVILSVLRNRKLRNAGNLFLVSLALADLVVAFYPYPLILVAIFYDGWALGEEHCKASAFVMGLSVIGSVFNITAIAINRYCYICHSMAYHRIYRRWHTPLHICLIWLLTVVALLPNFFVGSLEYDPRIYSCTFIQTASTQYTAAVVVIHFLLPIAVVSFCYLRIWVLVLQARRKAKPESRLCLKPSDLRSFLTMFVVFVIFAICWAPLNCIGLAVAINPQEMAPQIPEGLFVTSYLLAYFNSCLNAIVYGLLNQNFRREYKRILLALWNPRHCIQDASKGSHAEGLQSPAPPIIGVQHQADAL
Nature of the assay: Intracellular Ca2+ concentration by FLIPR in human MT2 receptor expressing cells (Example 2). The conditions noted are these: human MT2 receptor expressing HEK293 cells, 10^-5 M to 10^-12 M, FIGS. 3 and 5. It counts as cell-based. Here is the method: as §1, §2

Assay [4] deals with isolated urethra. Nature of the assay: Urethra contracting action using isolated urethra (Example 3). The conditions noted are these: isolated urethra of SD female rat, cumulative 10^-5 M to 10^-12 M, FIGS. 6 and 7. Here is the method:
The urethra was isolated from an SD female rat having a body weight of 100 g to 500 g. The isolated urethra was incised vertically and then made into strip-shaped specimens having a width of about 3 mm. The specimens were suspended in a 10 mL tissue bus filled with a Krebs—Henseleit solution (pH 7.4) in the circular muscle direction. The Krebs—Henseleit solution was aerated at 95% O2 and 5% CO2, and warmed at 37° C. The resting tension was set to 0.5 g and the isometric contraction was recorded. After the resting tension was stabilized, a 10 μM phenylephrine solution was added thereto to cause contraction.

For assay [5], the system named is isolated urethra. Nature of the assay: Effect of luzindole on urethra contracting action of ramelteon in isolated urethra (Example 5). Further details: species or system rat. The conditions noted are these: for isolated urethra contracting action: contraction by 1 μM ramelteon at first time = 100%. Here is the method:
The urethra was isolated from an SD female rat having a body weight of 100 g to 500 g. The isolated urethra was incised vertically and then made into strip-shaped specimens having a width of about 3 mm. The specimens were suspended in a 10 mL tissue bus filled with a Krebs-Henseleit solution (pH 7.4) in the circular muscle direction or the longitudinal muscle direction. […] The resting tension was set to 0.5 g and the isometric contraction was recorded. After the resting tension was stabilized, a 10 μM phenylephrine solution was added thereto to cause contraction. After washing and stabilizing, the compound (ramelteon) was cumulatively added to a final concentration of 10^−5 M to 10^−12 M and the contraction response was measured. After washing and stabilizing, luzindole was added, after 20 minutes, ramelteon was cumulatively added again, and the contraction response was measured.

Assay [6] addresses T2, human MT2 receptor. The assay is described as follows: Effect of luzindole on ramelteon-induced intracellular Ca2+ increase in human MT2 receptor expressing cells (Example 5). Type of assay: cell-based. The conditions noted are these: for intracellular Ca^2+ concentration increasing action: action by 10^-6 M ramelteon = 100%. As for the experimental part:
(§3) The respective stably expressing cells were dispensed into 96 wells in a poly-D-lysine-coated plate (Falcon) the day before the experiment to give 40,000 cells/well, and cultured in a DMEM (Invitrogen Inc.) medium containing 10% FBS at 37° C. and 5% CO2 overnight. The medium was replaced with a loading buffer (a washing solution containing 4 μM Fluo-4AM (Dojindo Co.) (Hank's balanced salt solution (HBSS), 20 mM HEPES-NaOH, 2.5 mM probenecid)) and cultured at 37° C. and 5% CO2 for 1 hour. Thereafter, the cells were washed with a plate washer (EL×405, BIO-TEK Instrument Inc.) having a washing solution set therein, and set in an intracellular Ca concentration measuring system (FLIPR (registered trademark), Molecular Device Inc.). Luzindole was preliminarily dissolved in a washing solution, diluted to a final concentration of 10^−5 M to 10^−7 M, and left to stand at room temperature for 5 minutes. Ramelteon was preliminarily dissolved in a washing solution and diluted to a final concentration of 10^−5 M to 10^−11 M, the resultant was set in an FLIPR (registered trademark) device together with the cells after leaving to stand for 5 minutes after the addition of luzindole, the cells were added to the device, and a change in the intracellular Ca^2+ concentration at that time was measured.

For assay [7], the target named is T1, human MT1 receptor. The assay is described as follows: Effect of luzindole on ramelteon-induced intracellular Ca2+ increase in human MT1 receptor expressing cells (Example 5). Type of assay: cell-based. The conditions noted are these: for intracellular Ca^2+ concentration increasing action: action by 10^-6 M ramelteon = 100%. As for the experimental part:
as §3

Where [8] appears, read: intravenous, anesthetized SD female rat, FIGS. 10 to 14.
[9] abbreviates: final concentration of ramelteon 10^-5 M.

With `COc1ccc(OC)c(C(O)CN)c1` (stereo not shown) [ST-1059], the “urethral pressure increasing action” value in assay [1] (rat, dose 0.01 mg/kg) worked out at 4.9±1.1 mmHg.

Take `COc1cc2c([C@@H](C)CNC(C)=O)c[nH]c2cc1Cl` [TIK-301, N-[(2R)-2-(6-chloro-5-methoxy-1H-indol-3-yl)propyl]acetamide]: the “intracellular Ca^2+ concentration (melatonin receptor activating action)” value in assay [2] and in assay [3] was “increased” each time. Besides, in assay [4], the urethra contracting action entry is “contracted the isolated urethra”. The “urethral pressure increasing action” value in assay [1] (setting [8]) is “increased the urethral pressure”.

Take `COc1ccc2cccc(CCNC(C)=O)c2c1` [agomelatine, N-[2-(7-methoxynaphth-1-yl)ethyl]acetamide]: the “intracellular Ca^2+ concentration (melatonin receptor activating action)” value in assay [2] and in assay [3] was “increased” throughout. Moreover, the urethra contracting action result in assay [4] was “contracted the isolated urethra”. Further, the “urethral pressure increasing action” value in assay [1] (setting [8]) is on record as “increased the urethral pressure”.

As to `CC(=O)NCCc1c(Cc2ccccc2)[nH]c2ccccc12` [luzindole, N-[2-[2-(phenylmethyl)-1H-indol-3-yl]ethyl]acetamide], the “inhibiting action on isolated urethra contracting action” value in assay [5] (setting [9]) was “substantially did not exhibit an inhibiting action”. In addition, the “isolated urethra contracting action” value in assay [5] (ramelteon 10^-5 M with 10^-5 M luzindole) is 78%; in assay [5] (ramelteon 10^-5 M with 10^-6 M luzindole), 94%; in assay [5] (ramelteon 10^-5 M with 10^-7 M luzindole), 101%. Besides, the “inhibition of isolated urethra contracting action by ramelteon” value in assay [5] (treatment with luzindole 10^-7 M to 10^-5 M, FIG. 17) is “inhibited in a concentration-dependent manner”. Besides, the “inhibition of the increase in intracellular Ca^2+ concentration by ramelteon” value in assay [6] (MT2 receptor expressing cells, FIG. 16) was “inhibited”; in assay [7] (MT1 receptor expressing cells, FIG. 15), “inhibited”. The “intracellular Ca^2+ concentration increasing action” value was 52% in assay [6] (MT2 receptor expressing cells, ramelteon 10^-5 M with 10^-5 M luzindole); 60% in assay [6] (MT2 receptor expressing cells, ramelteon 10^-5 M with 10^-6 M luzindole); 62% in assay [6] (MT2 receptor expressing cells, ramelteon 10^-5 M with 10^-7 M luzindole); 94% in assay [7] (MT1 receptor expressing cells, ramelteon 10^-5 M with 10^-5 M luzindole); 97% in assay [7] (MT1 receptor expressing cells, ramelteon 10^-5 M with 10^-6 M luzindole); 100% in assay [7] (MT1 receptor expressing cells, ramelteon 10^-5 M with 10^-7 M luzindole). Also, the “inhibiting action, MT2 versus MT1 receptor expressing cells” value in assay [6] (comparison of MT2 and MT1 receptor expressing cells) is listed as “stronger in the MT2 receptor expressing cells than in the MT1 receptor expressing cells”. Also, the “inhibiting action on the MT1 receptor” value in assay [7] (setting [9]) was “substantially did not exhibit an inhibiting action”.

For `CCC(=O)NC[C@@H]1C[C@H]1c1cccc2c1CCO2` [tasimelteon, (−)-(trans)-N-{[2-(2,3-dihydrobenzofuran-4-yl)cyclopropan-l-yl]methyl}propanamide], the “intracellular Ca^2+ concentration (melatonin receptor activating action)” value in assay [2] and in assay [3] was “increased” throughout. For the same compound, the urethra contracting action entry in assay [4] is “contracted the isolated urethra”. Moreover, the “urethral pressure increasing action” value in assay [1] (setting [8]) was “increased the urethral pressure”.
